The values below come from US6476036B1, “Sodium salt of 3-(4-cinnamyl-1-piperazinyl)-imino-methyl rifamycin SV” (priority 1998, dated 2002).

Like-named read-outs stand apart in the source and are kept apart here.

For series [1] the following is noted: mice; cited from earlier work.
For series [2] the following is noted: mouse, in vivo, 20 mg/kg.
Series [3] in a line: Non-model pharmacokinetics in mice. Conditions: base 20 mg/kg.
The conditions of series [4]: rabbit, in vivo, 20 mg/kg.
For series [5] the following is noted: rat, in vivo, 20 mg/kg.
A short description of series [6]: Solubility. In kind it is physicochemical. Conditions: water and organic solvents. As to the method:
4,62 g (0,005 g/moll) of 3-(4-cinnamyl-1-piperazinyl)-iminomethyl rifamycin SV is suspended in 40 ml methanol and 0,1 g sodium ascorbate dissolved in 1 ml water is added. To the obtained suspension 0,9 ml of 30% methanol solution of sodium methylate (equimolar quantity) is added. The suspension immediately turns into a solution because of the formation of the sodium salt. The reaction mixture is filtered to remove the unsolved sediment of sodium ascorbate, and the solvent is concentratrated in vacuum and dried to give the soduim salt as a dark-red solid powder. This product has high purity and the yield is practically quantitative.

The subject of series [7] is generalized tuberculosis. The conditions noted are these: doses 10 mg/kg, after 60 days of treatment, test animals; cited from earlier work.
For series [8], the system named is Gram-positive microorganisms including aerobic, anaerobic and Mycobacterium (typical and atypical). Briefly: In vitro antibacterial activity. The series is classed as cell-based. The conditions noted are these: in comparison with the initial compound T-9.
The nature of series [9]: Stability of water solutions. In kind it is physicochemical.

Consider `CO[C@H]1/C=C/O[C@@]2(C)Oc3c(C)c(O)c4c(O)c(c(/C=N/N5CCN(C)CC5)c(O)c4c3C2=O)NC(=O)/C(C)=C\C=C\[C@H](C)[C@H](O)[C@@H](C)[C@@H](O)[C@@H](C)[C@H](OC(C)=O)[C@@H]1C` [Rifampicin], for which, in series [1], the acute toxicity is 1500 mg/kg.
With `CO[C@H]1/C=C/O[C@@]2(C)Oc3c(C)c(O)c4c(O)c(c(/C=N/N5CCN(C/C=C/c6ccccc6)CC5)c(O)c4c3C2=O)NC(=O)/C(C)=C\C=C\[C@H](C)[C@H](O)[C@@H](C)[C@@H](O)[C@@H](C)[C@H](OC(C)=O)[C@@H]1C` [T-9, 3-(4-cinnamyl-1-piperazinyl)-iminomethyl rifamycin SV, reference compound], in [2], the AUC (in general, concentration integrated over time) is 735 µg·h/mL; the CL was found to be 0.092 mL·min/kg; the Cmax (usually the highest concentration seen after dosing) is 12400 ng/mL; the Tmax (in general, the time from dosing to the highest level) was determined as 8 h. In addition, the T1/2 in series [3] (p.o) came out at 33.70 h. In [4], the AUC came out at 233 µg·h/mL, the peak level (Cmax) was 2750 ng/mL, the T1/2 stood at 56.63 h and the Tmax is 2 h. Besides, in [5], the AUC was 543 µg·h/mL, the concentration peaked (Cmax) at 8200 ng/mL, the T1/2 is listed as 21.18 h and the Tmax is given as 6 h. Besides, the solubility result in series [6] is reported as “unsoluble”. Moreover, the “therapeutic activity in generalized tuberculosis” value in series [7] is reported as “full organ sterilization”. Besides, the acute toxicity in [1] is given as 4000 mg/kg.
In [2], “sodium salt of 3-(4-cinnamyl-1-piperazinyl)-iminomethyl rifamycin SV [T-11]” came in with a CL of 0.092 mL·min/kg. The “antibacterial activity in vitro” value in series [8] was “good antibacterial activity”. Moreover, the T1/2 in series [3] (i.v) amounted to 39.08 h. The compound also had a T1/2 in series [3] (p.o) of 38.02 h. In series [4], the AUC is 299 µg·h/mL, the Cmax was determined as 2710 ng/mL, the T1/2 was 28.04 h and the Tmax turned out to be 2 h. Further, the “stability of the obtained water solutions” value in series [9] is “good stability”. Besides, in series [5], the AUC is 671 µg·h/mL, the Cmax worked out at 9200 ng/mL, the T1/2 is on record as 20.04 h and the time to peak (Tmax) is listed as 2 h. In [6], the solubility entry was “soluble in water, methanol, ethanol, acetone and unsoluble in isopropanol”.
